Assay in all cases: microbe, parasite or virus in culture
Common to all, as to type: cell-based, HIV-1

In experiment [1] the test system is T332S/V362I/Pr R41G virus. The settings on record: Human immunodeficiency virus 1, MT2, read-out: T332S/V362I/pr41G EC50. A digest of the protocol:
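Multiple-cycle susceptibility: MT-2 cells, 10,000 per well, exposed to 3-fold compound dilutions at 1% DMSO after infection with luciferase-normalized inoculum. Virus: NL4-3-derived Renilla reporter (Gag P373S) with Gag T332S/V362I and protease R41G. Readout Renilla luciferase after 4–5 days, 37 °C.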

Experiment [2] concerns A364V site directed mutant virus. The settings on record: Human immunodeficiency virus 1, MT2, read-out: A364V EC50. The procedure, abridged:
(§1)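 Virus yield quantified by Renilla luciferase after 4–5 day culture at 37°C of MT-2 cells (10,000/well) with 3-fold serially diluted compound at 1% final DMSO. Reporter viruses were NL4-3 P373S derivatives bearing Gag A364V or V370A/ΔT371, inputs matched on luciferase endpoint.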

A further experiment has as its system gag V370A/ΔT371 virus. As to conditions: Human immunodeficiency virus 1, MT2, read-out: V370A/ΔT371 EC50. A digest of the protocol: as §1
The test system of experiment [3] is NLRepRlucP373S recombinant wild type (WT) virus. As to conditions: Human immunodeficiency virus 1, MT2, read-out: WT EC50. The procedure, abridged: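 Multiple-cycle assay: luciferase-normalized NL4-3-derived NLRepRlucP373S (Renilla luciferase in place of nef) infects MT-2 cells, 10,000 cells/well, with 3-fold compound dilutions at 1% DMSO, 4-5 days, 37 °C. EC50 and EC90 fitted by median effect equation against Renilla luminescence, with residual signal under 3 μM NFV as background.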

Data on ten compounds can be found in patent US10421774B2 (priority 2016, dated 2019).

pEC50: −log10 of the molar value.

In the case of `C=C(C)[C@@H]1CC[C@]2(NCC[C@]3(O)CC[C@H](S(C)(=O)=O)CC3)CC[C@]3(C)[C@H](CC[C@@H]4[C@@]5(C)CC=C(C6=CC[C@@](COc7ncccc7C#N)(C(=O)O)CC6)C(C)(C)[C@@H]5CC[C@]43C)[C@@H]12` [Example A4, (S)-1-(((3-cyanopyridin-2-yl)oxy)methyl)-4-((1R,3aS,5aR,5bR,7aR,11aS,11bR,13aR,13bR)-3a-((2-((1r,4S)-1-hydroxy-4-(methylsulfonyl)cyclohexyl)ethyl)amino)-5a,5b,8,8,11a-pentamethyl-1-(prop-1-en-2-yl)-2,3,3a,4,5,5a,5b,6,7,7a,8,11,11a,11b,12,13,13a,13b-octadecahydro-1H-cyclopenta[a]chrysen-9-yl)cyclohex-3-enecarboxylic acid], the pEC50 in experiment [1] was 8.22; in experiment [2], 7.59; in the experiment on gag V370A/ΔT371 virus it was 8.22; in experiment [3], 8.40.
Consider `C=C(C)[C@@H]1CC[C@]2(NCC[C@]3(O)CC[C@H](S(C)(=O)=O)CC3)CC[C@]3(C)[C@H](CC[C@@H]4[C@@]5(C)CC=C(C6=CCC(COc7ccccn7)(C(=O)O)CC6)C(C)(C)[C@@H]5CC[C@]43C)[C@@H]12` (stereo partly drawn) [Example A2, 4-((1R,3aS,5aR,5bR,7aR,11aS,11bR,13aR,13bR)-3a-((2-((1r,4S)-1-hydroxy-4-(methylsulfonyl)cyclohexyl)ethyl)amino)-5a,5b,8,8,11a-pentamethyl-1-(prop-1-en-2-yl)-2,3,3a,4,5,5a,5b,6,7,7a,8,11,11a,11 b,12,13,13a,13b-octadecahydro-1H-cyclopenta[a]chrysen-9-yl)-1-((pyridin-2-yloxy)methyl)cyclohex-3-enecarboxylic acid], for which the pEC50 in experiment [1] was 8.10; in experiment [2] it was 7.85; in the experiment on gag V370A/ΔT371 virus it was 8.10; in experiment [3], 9.00.
As to `C=C(C)[C@@H]1CC[C@]2(NCCN3CCS(=O)(=O)CC3)CC[C@]3(C)[C@H](CC[C@@H]4[C@@]5(C)CC=C(C6=CCC(CCOc7cc(C(=O)O)ccn7)(C(=O)O)CC6)C(C)(C)[C@@H]5CC[C@]43C)[C@@H]12` (stereo partly drawn) [Example A23, 2-(2-(1-carboxy-4-((1R,3aS,5aR,5bR,7aR,11aS,11bR,13aR,13bR)-3a-((2-(1,1-dioxidothiomorpholino)ethyl)amino)-5a,5b,8,8,11a-pentamethyl-1-(prop-1-en-2-yl)-2,3,3a,4,5,5a,5b,6,7,7a,8,11,11a,11b,12,13,13a,13b-octadecahydro-1H-cyclopenta[a]chrysen-9-yl)cyclohex-3-en-1-yl)ethoxy)isonicotinic acid], the pEC50 in experiment [1] is 6.71; in experiment [2], 6.48; in the experiment on gag V370A/ΔT371 virus it was under 7.30; in experiment [3], 8.15.
Taken in the same sequence, the figures for `C=C(C)[C@@H]1CC[C@]2(NC[C@@H](O)CO)CC[C@]3(C)[C@H](CC[C@@H]4[C@@]5(C)CC=C(C6=CC[C@](COc7ncccc7C#N)(C(=O)O)CC6)C(C)(C)[C@@H]5CC[C@]43C)[C@@H]12` [Example A7, (R)-1-(((3-cyanopyridin-2-yl)oxy)methyl)-4-((1R,3aS,5aR,5bR,7aR,11aS,11bR,13aR,13bR)-3a-(((R)-2,3-dihydroxypropyl)amino)-5a,5b,8,8,11a-pentamethyl-1-(prop-1-en-2-yl)-2,3,3a,4,5,5a,5b,6,7,7a,8,11,11a,11b,12,13,13a,13b-octadecahydro-1H-cyclopenta[a]chrysen-9-yl)cyclohex-3-enecarboxylic acid] were 8.30, 6.32, 8.30 and 8.52.
In the case of `C=C(C)[C@@H]1CC[C@]2(NCCN3CCS(=O)(=O)CC3)CC[C@]3(C)[C@H](CC[C@@H]4[C@@]5(C)CC=C(C6=CC[C@@](COc7cc(C(N)=O)ccn7)(C(=O)O)CC6)C(C)(C)[C@@H]5CC[C@]43C)[C@@H]12` [Example 30, (S)-1-(((4-carbamoylpyridin-2-yl)oxy)methyl)-4-((1R,3aS,5aR,5bR,7aR,11aS,11bR,13aR,13bR)-3a-((2-(1,1-dioxidothiomorpholino)ethyl)amino)-5a,5b,8,8,11a-pentamethyl-1-(prop-1-en-2-yl)-2,3,3a,4,5,5a,5b,6,7,7a,8,11,11a,11b,12,13,13a,13b-octadecahydro-1H-cyclopenta[a]chrysen-9-yl)cyclohex-3-ene-1-carboxylic acid], the pEC50 (in experiment [1]; in experiment [2]; in the experiment with gag V370A/ΔT371 virus; in experiment [3]) was over 7.30 each time.
As for `C=C(C)[C@@H]1CC[C@]2(NCCN3CCS(=O)(=O)CC3)CC[C@]3(C)[C@H](CC[C@@H]4[C@@]5(C)CC=C(C6=CCC(CCOc7ncccc7C#N)(C(=O)O)CC6)C(C)(C)[C@@H]5CC[C@]43C)[C@@H]12` (stereo partly drawn) [Example A22, 1-(2-((3-cyanopyridin-2-yl)oxy)ethyl)-4-((1R,3aS,5aR,5bR,7aR,11aS,11bR,13aR,13bR)-3a-((2-(1,1-dioxidothiomorpholino)ethyl)amino)-5a,5b,8,8,11a-pentamethyl-1-(prop-1-en-2-yl)-2,3,3a,4,5,5a,5b,6,7,7a,8,11,11a,11b,12,13,13a,13b-octadecahydro-1H-cyclopenta[a]chrysen-9-yl)cyclohex-3-ene-1-carboxylic acid], the pEC50 in experiment [1] was 7.89; in experiment [2], 7.57; in the experiment with gag V370A/ΔT371 virus, 7.89; in experiment [3], 8.40.
With `C=C(C)[C@@H]1CC[C@]2(NCCN3CCS(=O)(=O)CC3)CC[C@]3(C)[C@H](CC[C@@H]4[C@@]5(C)CC=C(C6=CC[C@@](COc7ncccc7C(N)=O)(C(=O)O)CC6)C(C)(C)[C@@H]5CC[C@]43C)[C@@H]12` [Example 26, (S)-1-(((3-carbamoylpyridin-2-yl)oxy)methyl)-4-((1R,3aS,5aR,5bR,7aR,11aS,11bR,13aR,13bR)-3a-((2-(1,1-dioxidothiomorpholino)ethyl)amino)-5a,5b,8,8,11a-pentamethyl-1-(prop-1-en-2-yl)-2,3,3a,4,5,5a,5b,6,7,7a,8,11,11a,11b,12,13,13a,13b-octadecahydro-1H-cyclopenta[a]chrysen-9-yl)cyclohex-3-ene-1-carboxylic acid], the pEC50 in experiment [1] was 7.39; in experiment [2] it was 7.55; with gag V370A/ΔT371 virus, 7.39; in experiment [3], 8.30.
With `C=C(C)[C@@H]1CC[C@]2(NCCN3CCS(=O)(=O)CC3)CC[C@]3(C)[C@H](CC[C@@H]4[C@@]5(C)CC=C(C6=CCC(COc7cccnn7)(C(=O)O)CC6)C(C)(C)[C@@H]5CC[C@]43C)[C@@H]12` (stereo partly drawn) [Example 19, 4-((1R,3aS,5aR,5bR,7aR,11aS,11bR,13aR,13bR)-3a-((2-(1,1-dioxidothiomorpholino)ethyl)amino)-5a,5b,8,8,11a-pentamethyl-1-(prop-1-en-2-yl)-2,3,3a,4,5,5a,5b,6,7,7a,8,11,11a,11 b,12,13,13a,13b-octadecahydro-1H-cyclopenta[a]chrysen-9-yl)-1-((pyridazin-3-yloxy)methyl)cyclohex-3-ene-1-carboxylic acid], the pEC50 was 7.33 in experiment [1], 7.44 in experiment [2], 7.33 with gag V370A/ΔT371 virus and 8.52 in experiment [3].
On to `C=C(C)[C@@H]1CC[C@]2(NCCN3CCS(=O)(=O)CC3)CC[C@]3(C)[C@H](CC[C@@H]4[C@@]5(C)CC=C(C6=CCC(COc7nccc8ccc(OC)cc78)(C(=O)O)CC6)C(C)(C)[C@@H]5CC[C@]43C)[C@@H]12` (stereo partly drawn) [Example 35, 4-((1R,3aS,5aR,5bR,7aR,11aS,11bR,13aR,13bR)-3a-((2-(1,1-dioxidothiomorpholino)ethyl)amino)-5a,5b,8,8,11a-pentamethyl-1-(prop-1-en-2-yl)-2,3,3a,4,5,5a,5b,6,7,7a,8,11,11a,11 b,12,13,13a,13b-octadecahydro-1H-cyclopenta[a]chrysen-9-yl)-1-(((7-methoxyisoquinolin-1-yl)oxy)methyl)cyclohex-3-ene-1-carboxylic acid], for which the pEC50 in experiment [1] is under 7.30; in experiment [2], 7.62; with gag V370A/ΔT371 virus it was under 7.30; in experiment [3], 8.15.
Take `C=C(C)[C@@H]1CC[C@]2(NC[C@@H](O)C(=O)O)CC[C@]3(C)[C@H](CC[C@@H]4[C@@]5(C)CC=C(C6=CC[C@](COc7ncccc7C(=O)O)(C(=O)O)CC6)C(C)(C)[C@@H]5CC[C@]43C)[C@@H]12` [Example A16, 2-(((R)-1-carboxy-4-((1R,3aS,5aR,5bR,7aR,11aS,11bR,13aR,13bR)-3a-(((R)-2-carboxy-2-hydroxyethyl)amino)-5a,5b,8,8,11a-pentamethyl-1-(prop-1-en-2-yl)-2,3,3a,4,5,5a,5b,6,7,7a,8,11,11a,11b,12,13,13a,13b-octadecahydro-1H-cyclopenta[a]chrysen-9-yl)cyclohex-3-en-1-yl)methoxy)nicotinic acid]: the pEC50 in experiment [1] is 7.17; in experiment [2] it was 6.86; in the experiment with gag V370A/ΔT371 virus, 7.17; in experiment [3], 8.00.
